Several values for one entry are separate records, joined by “and”; a condition that tells them apart may be missing. Equal values may be shown once.
Details: 101.33 kPa, Liquid, Hot wire method

CC(C)CC(C)(C)C [2,2,4-trimethylpentane]
Details | thermal conductivity [W/m/K] | thermal diffusivity [m2/s]
259.11 K | 0.1042 | –
259.32 K | 0.1041 | –
259.52 K | 0.104 | –
259.89 K | – | 7.3e-08
260.43 K | – | 7.32e-08
260.92 K | – | 7.33e-08
277.52 K | 0.09971 | –
277.74 K | 0.09966 | –
277.93 K | 0.09958 | –
278.29 K | – | 6.86e-08
278.84 K | – | 6.88e-08
279.31 K | – | 6.87e-08
295.67 K | 0.09516 | –
295.9 K | 0.09509 | –
296.1 K | 0.09502 | –
296.41 K | – | 6.37e-08
296.96 K | – | 6.41e-08
297.45 K | – | 6.42e-08
313.79 K | 0.09108 | –
314.02 K | 0.091 | –
314.22 K | 0.09093 | –
314.56 K | – | 6.07e-08
315.1 K | – | 6.07e-08
315.57 K | – | 6.07e-08
327.69 K | 0.08786 | –
327.93 K | 0.0878 | –
328.14 K | 0.08771 | –
328.47 K | – | 5.82e-08
329.04 K | – | 5.83e-08
329.52 K | – | 5.81e-08

CCCC(C)C [2-methylpentane]
Details | thermal conductivity [W/m/K] | thermal diffusivity [m2/s]
256.56 K | 0.1182 | –
256.89 K | 0.1181 | –
257.29 K | 0.1179 | –
257.79 K | – | 8.23e-08
258.59 K | – | 8.18e-08
259.61 K | – | 8.15e-08
277.01 K | 0.1114 | –
277.35 K | 0.1113 | –
277.8 K | 0.1111 | –
278.28 K | – | 7.65e-08
279.1 K | – | 7.61e-08
280.22 K | – | 7.57e-08
297.36 K | 0.1049 | –
297.71 K | 0.1048 | –
298.16 K | 0.1046 | –
298.66 K | – | 7.11e-08
299.5 K | – | 7.09e-08
300.57 K | – | 7.04e-08
314.15 K | 0.09989 | –
314.51 K | 0.09978 | –
314.99 K | 0.09959 | –
315.5 K | – | 6.71e-08
316.34 K | – | 6.69e-08
317.47 K | – | 6.65e-08
328.29 K | 0.09597 | –
328.64 K | 0.09583 | –
329.15 K | 0.09564 | –
329.7 K | – | 6.42e-08
330.51 K | – | 6.39e-08
331.7 K | – | 6.36e-08

CCCC(C)CC (stereo not given) [3-methylhexane]
Details | thermal conductivity [W/m/K] | thermal diffusivity
256.62 K | 0.1236 | –
257 K | 0.1233 | –
257.38 K | 0.1231 | –
257.59 K | – | 8.59e-08 m2/s
258.63 K | – | 8.5e-08 m2/s
259.54 K | – | 8.43e-08 m2/s
269.72 K | 0.1196 | –
270.11 K | 0.1193 | –
270.44 K | 0.1191 | –
270.7 K | – | 8.14e-08 m2/s
271.73 K | – | 8.1e-08 m2/s
272.58 K | – | 8.04e-08 m2/s
284.9 K | 0.115 | –
285.32 K | 0.1148 | –
285.66 K | 0.1146 | –
285.92 K | – | 7.81e-08 m2/s
287.01 K | – | 7.78e-08 m2/s
287.89 K | – | 7.72e-08 m2/s
296.55 K | 0.1113 | –
296.95 K | 0.1113 | –
297.35 K | 0.111 | –
297.62 K | – | 7.5e-08 m2/s
298.65 K | – | 7.47e-08 m2/s
299.67 K | – | 7.41e-08 m2/s
311.54 K | 0.1073 | –
311.97 K | 0.107 | –
312.34 K | 0.1068 | –
312.6 K | – | 7.22e-08 m2/s
313.66 K | – | 7.08e-08 m2/s
314.6 K | – | 7.07e-08 m2/s
321.52 K | 0.1046 | –
321.98 K | 0.1042 | –
322.34 K | 0.104 | –
322.62 K | – | 7.02e-08 m2/s
323.75 K | – | 6.94e-08 m2/s
324.66 K | – | 6.86e-08 m2/s and 6.87e-08 m2/s
332.24 K | 0.1017 | –
332.69 K | 0.1013 | –
333.09 K | 0.1011 | –
333.3 K | – | 6.69e-08 m2/s
334.41 K | – | 6.61e-08 m2/s
335.4 K | – | 6.61e-08 m2/s
343.42 K | 0.09857 | –
343.89 K | 0.09831 | –
344.28 K | 0.09813 | –
344.3 K | 0.09807 | –
344.46 K | – | 6.42e-08 m2/s
345.61 K | – | 6.37e-08 m2/s
346.56 K | – | 6.32e-08 m2/s
346.62 K | – | 6.37e-08 m2/s

Reference: the NIST ThermoML archive (doi:10.1021/je020125e)
